Values quoted from earlier work as cited in US20020119970A1, “Method for treating glaucoma IIB” (priority 2000, published 2002).

Assays:
[1] = test system: Rhesus monkeys; details: accommodative responses to i.m. pilocarpine; result referred to co-filed application "Methods for Treating Glaucoma I"
[2] = test system: Aged Rhesus monkeys; details: drug treated vs. control eye; baseline and pilocarpine-stimulated conditions; result referred to co-filed application "Methods for Treating Glaucoma I"

Cc1sc[n+](CC(=O)c2ccccc2)c1C.[Cl-] [4,5-dimethyl-3-(2-oxoethyl-phenethyl)thiazolium chloride]
Improvement in accommodation [1]: Improvement in accommodation has been illustrated | improvement in ophthalmologic function (fluid outflow facility) [2]: improvement has been illustrated
